Measurements taken from the supplement of paper PMC10307832.

Legend:
Assay in all cases: relative viability (nuclei count vs DMSO), 5 days (fraction); higher = more cells survive
BEN = test system: BEN
Method in brief: (§1)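 Lung cancer cell lines in 1536-well plates were dosed by pin tool the day after seeding, either with one drug alone or with a fixed anchor-drug dose plus five library-drug doses (not always all listed) in √10 steps. After 5 days, cells were fixed and their nuclei stained in one step (final 0.05% Triton X-100, 1% formaldehyde, 1 ug/ml Hoechst), then counted on 4× images. Relative viability is the nuclei count in treated wells divided by that in vehicle wells. Values are medians of duplicate plates.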

EKVX = test system: EKVX
Method in brief: as §1

EMC-BAC-2 = test system: EMC-BAC-2
Method in brief: as §1

EPLC-272H = test system: EPLC-272H
Method in brief: as §1

NCI-H596 = test system: NCI-H596
Method in brief: as §1

NCI-H460 = test system: NCI-H460
Method in brief: as §1

LXF-289 = test system: LXF-289
Method in brief: as §1

NCI-H2126 = test system: NCI-H2126
Method in brief: as §1

NCI-H1650 = test system: NCI-H1650
Method in brief: as §1

NCI-H358 = test system: NCI-H358
Method in brief: as §1

201T = test system: 201T
Method in brief: as §1

SW 1573 = test system: SW 1573
Method in brief: as §1

NCI-H1651 = test system: NCI-H1651
Method in brief: as §1

NCI-H2347 = test system: NCI-H2347
Method in brief: as §1

LCLC-103H = test system: LCLC-103H
Method in brief: as §1

NCI-H2087 = test system: NCI-H2087
Method in brief: as §1

HCC-827 = test system: HCC-827
Method in brief: as §1

NCI-H1793 = test system: NCI-H1793
Method in brief: as §1

COR-L23 = test system: COR-L23
Method in brief: as §1

NCI-H1915 = test system: NCI-H1915
Method in brief: as §1

A-427 = test system: A-427
Method in brief: as §1

LK-2 = test system: LK-2
Method in brief: as §1

HCC-44 = test system: HCC-44
Method in brief: as §1

Compound: Cc1cnc(-c2cnc(NCCNc3ccc(C#N)cn3)nc2-c2ccc(Cl)cc2Cl)[nH]1 + Cc1cc(Nc2cc(N3CCN(C)CC3)nc(Sc3ccc(NC(=O)C4CC4)cc3)n2)n[nH]1 [Tozasertib] (partner 0.1 µM)
- relative viability (BEN; first compound 0.08 µM): 0.517
- relative viability (BEN; first compound 0.253 µM): 0.609
- relative viability (BEN; first compound 0.8 µM): 0.476
- relative viability (BEN; first compound 2.53 µM): 0.52
- relative viability (EKVX; first compound 0.08 µM): 0.408
- relative viability (EKVX; first compound 0.253 µM): 0.357
- relative viability (EKVX; first compound 0.8 µM): 0.347
- relative viability (EKVX; first compound 2.53 µM): 0.335
- relative viability (EMC-BAC-2; first compound 0.08 µM): 0.313
- relative viability (EMC-BAC-2; first compound 0.253 µM): 0.261
- relative viability (EMC-BAC-2; first compound 0.8 µM): 0.252
- relative viability (EMC-BAC-2; first compound 2.53 µM): 0.273
- relative viability (EPLC-272H; first compound 0.08 µM): 0.321
- relative viability (EPLC-272H; first compound 0.253 µM): 0.255
- relative viability (EPLC-272H; first compound 0.8 µM): 0.249
- relative viability (EPLC-272H; first compound 2.53 µM): 0.197
- relative viability (NCI-H596; first compound 0.08 µM): 0.925
- relative viability (NCI-H596; first compound 0.253 µM): 0.752
- relative viability (NCI-H596; first compound 0.8 µM): 0.839
- relative viability (NCI-H596; first compound 2.53 µM): 0.793
- relative viability (NCI-H460; first compound 0.08 µM): 0.48
- relative viability (NCI-H460; first compound 0.253 µM): 0.152
- relative viability (NCI-H460; first compound 0.8 µM): 0.101
- relative viability (NCI-H460; first compound 2.53 µM): 0.137
- relative viability (LXF-289; first compound 0.08 µM): 0.223
- relative viability (LXF-289; first compound 0.253 µM): 0.155
- relative viability (LXF-289; first compound 0.8 µM): 0.18
- relative viability (LXF-289; first compound 2.53 µM): 0.161
- relative viability (NCI-H2126; first compound 0.08 µM): 1.02
- relative viability (NCI-H2126; first compound 0.253 µM): 0.802
- relative viability (NCI-H2126; first compound 0.8 µM): 0.844
- relative viability (NCI-H2126; first compound 2.53 µM): 0.837
- relative viability (NCI-H1650; first compound 0.08 µM): 0.476
- relative viability (NCI-H1650; first compound 0.253 µM): 0.43
- relative viability (NCI-H1650; first compound 0.8 µM): 0.353
- relative viability (NCI-H1650; first compound 2.53 µM): 0.229
- relative viability (NCI-H358; first compound 0.08 µM): 0.101
- relative viability (NCI-H358; first compound 0.253 µM): 0.0983
- relative viability (NCI-H358; first compound 0.8 µM): 0.137
- relative viability (NCI-H358; first compound 2.53 µM): 0.11
- relative viability (201T; first compound 0.08 µM): 0.93
- relative viability (201T; first compound 0.8 µM): 0.904
- relative viability (201T; first compound 2.53 µM): 0.884
- relative viability (SW 1573; first compound 0.08 µM): 0.177
- relative viability (SW 1573; first compound 0.253 µM): 0.138
- relative viability (SW 1573; first compound 0.8 µM): 0.302
- relative viability (SW 1573; first compound 2.53 µM): 0.156
- relative viability (NCI-H1651; first compound 0.08 µM): 0.7
- relative viability (NCI-H1651; first compound 0.253 µM): 0.648
- relative viability (NCI-H1651; first compound 0.8 µM): 0.682
- relative viability (NCI-H1651; first compound 2.53 µM): 0.565
- relative viability (NCI-H2347; first compound 0.08 µM): 0.59
- relative viability (NCI-H2347; first compound 0.253 µM): 0.466
- relative viability (NCI-H2347; first compound 0.8 µM): 0.411
- relative viability (NCI-H2347; first compound 2.53 µM): 0.481
- relative viability (LCLC-103H; first compound 0.08 µM): 0.503
- relative viability (LCLC-103H; first compound 0.253 µM): 0.417
- relative viability (LCLC-103H; first compound 0.8 µM): 0.429
- relative viability (LCLC-103H; first compound 2.53 µM): 0.426
- relative viability (NCI-H2087; first compound 0.08 µM): 0.249
- relative viability (NCI-H2087; first compound 0.253 µM): 0.203
- relative viability (NCI-H2087; first compound 0.8 µM): 0.211
- relative viability (NCI-H2087; first compound 2.53 µM): 0.128
- relative viability (HCC-827; first compound 0.08 µM): 0.432
- relative viability (HCC-827; first compound 0.8 µM): 0.44
- relative viability (HCC-827; first compound 2.53 µM): 0.407
- relative viability (NCI-H1793; first compound 0.08 µM): 0.347
- relative viability (NCI-H1793; first compound 0.253 µM): 0.276
- relative viability (NCI-H1793; first compound 0.8 µM): 0.257
- relative viability (NCI-H1793; first compound 2.53 µM): 0.182
- relative viability (COR-L23; first compound 0.08 µM): 0.205
- relative viability (COR-L23; first compound 0.253 µM): 0.181
- relative viability (COR-L23; first compound 0.8 µM): 0.164
- relative viability (COR-L23; first compound 2.53 µM): 0.109
- relative viability (NCI-H1915; first compound 0.08 µM): 0.404
- relative viability (NCI-H1915; first compound 0.253 µM): 0.322
- relative viability (NCI-H1915; first compound 0.8 µM): 0.342
- relative viability (NCI-H1915; first compound 2.53 µM): 0.374
- relative viability (A-427; first compound 0.08 µM): 0.232
- relative viability (A-427; first compound 0.253 µM): 0.194
- relative viability (A-427; first compound 0.8 µM): 0.235
- relative viability (A-427; first compound 2.53 µM): 0.186
- relative viability (LK-2; first compound 0.08 µM): 0.164
- relative viability (LK-2; first compound 0.253 µM): 0.176
- relative viability (LK-2; first compound 0.8 µM): 0.188
- relative viability (LK-2; first compound 2.53 µM): 0.148
- relative viability (HCC-44; first compound 0.08 µM): 1.04
- relative viability (HCC-44; first compound 0.253 µM): 0.746
- relative viability (HCC-44; first compound 0.8 µM): 0.676
- relative viability (HCC-44; first compound 2.53 µM): 0.781
